In one assay the target is T1, ER-α in MCF-7 cells (Homo sapiens, UniProt P03372).
T1 construct: endogenous in cells; host or cells: MCF-7
T1 sequence (P03372 1-595): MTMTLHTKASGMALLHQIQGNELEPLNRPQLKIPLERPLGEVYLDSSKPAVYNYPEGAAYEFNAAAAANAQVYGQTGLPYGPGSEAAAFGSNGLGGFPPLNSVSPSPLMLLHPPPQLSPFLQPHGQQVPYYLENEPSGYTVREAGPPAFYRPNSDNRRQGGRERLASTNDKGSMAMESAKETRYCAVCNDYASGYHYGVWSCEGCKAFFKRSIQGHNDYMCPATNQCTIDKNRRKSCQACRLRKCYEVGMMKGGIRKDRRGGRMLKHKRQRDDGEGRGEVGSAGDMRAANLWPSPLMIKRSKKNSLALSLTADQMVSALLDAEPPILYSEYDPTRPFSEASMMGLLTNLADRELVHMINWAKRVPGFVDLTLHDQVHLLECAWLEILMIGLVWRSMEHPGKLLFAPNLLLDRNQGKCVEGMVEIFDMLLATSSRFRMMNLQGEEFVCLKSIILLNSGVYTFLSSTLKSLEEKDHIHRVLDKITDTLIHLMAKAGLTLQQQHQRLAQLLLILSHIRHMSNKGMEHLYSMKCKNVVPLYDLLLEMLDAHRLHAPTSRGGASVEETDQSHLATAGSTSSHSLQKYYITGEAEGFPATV
Put plainly: Breast Cancer Cell ER-α In Cell Western Assay (SP1). Format: cell-based. Conditions: 4 or 24 hr post compound addition; for Emax: MCF7, SP1 antibody, read-out: ER-α In Cell Western Assay (SP1) Max Response; for DC50: SP1 antibody, read-out: ER-α In Cell Western Assay (SP1) IC50. In short, it runs like this:
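ER-α levels quantified by in-cell western: SP1 signal normalised to DRAQ5 DNA stain, relative to untreated cells (% ER). Compounds at 0.3–0.000003 μM final, 11-point semilog series, 4 or 24 h exposure of MCF-7 cells grown in charcoal-stripped serum.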

The subject of a further assay is MCF-7 cells. The assay can be described thus: Breast Cancer Cell Viability Assays (MCF-7, CellTiter-Glo). In kind it is cell-based. The following applies: 5 days' compound exposure; for IC50: Homo sapiens, MCF7, 120 h. The essentials:
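Percent viability, background-subtracted against untreated wells, was taken from CellTiter-Glo luminescence after 5 days' exposure of MCF-7 cells. Compounds were tested at eleven semilog concentrations, final 0.3–0.000003 μM, in RPMI containing 10% FBS.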
(Cellular ATP, detected with luciferase, serves as a proxy for viable cell number.)

Bounds are passed on as bounds.

Usually IC50 stands for the point on the concentration scale where inhibition reaches its midpoint.

Turning to `N#Cc1cc(F)ccc1/C(=C(\c1ccc(/C=C/C(=O)O)cc1)c1ccc2[nH]ncc2c1F)C1CCC1` [Example 66, (E)-3-(4-((E)-2-(2-Cyano-4-fluorophenyl)-2-cyclobutyl-1-(4-fluoro-1H-indazol-5-yl)vinyl)phenyl)acrylic acid], at ER-α in MCF-7 cells, the Emax is not below 40% and the DC50 is not above 100 nM. In addition, in the assay with MCF-7 cells, the “MCF7 Viability Assay Max Response” value is “++ (++ = a single % value ≧ 40%)” and the concentration for half-maximal inhibition (IC50) is not above 100 nM.
Take `COc1ccc(/C(=C(\c2ccc(/C=C/C(=O)O)cc2)c2ccc3[nH]nc(F)c3c2)C2CCC2)c(Cl)c1` [Example 67, (E)-3-(4-((E)-2-(2-Chloro-4-methoxyphenyl)-2-cyclobutyl-1-(3-fluoro-1H-indazol-5-yl)vinyl)phenyl)acrylic acid]: at ER-α in MCF-7 cells, the Emax was not below 40% and the DC50 was not above 100 nM. Moreover, in the assay with MCF-7 cells, the “MCF7 Viability Assay Max Response” value is listed as “++ (++ = a single % value ≧ 40%)” and the IC50 was not above 100 nM.
`COc1ccc(/C(=C(\c2ccc(/C=C/C(=O)O)cc2)c2ccc3[nH]nc(F)c3c2)C2CCC2)c(F)c1` [Example 68, (E)-3-(4-((E)-2-Cyclobutyl-1-(3-fluoro-1H-indazol-5-yl)-2-(2-fluoro-4-methoxyphenyl)vinyl)phenyl)acrylic acid]: on ER-α in MCF-7 cells, the Emax is not below 40% and the DC50 is not above 100 nM. In addition, in the assay with MCF-7 cells, the “MCF7 Viability Assay Max Response” value is “++ (++ = a single % value ≧ 40%)” and the IC50 is not above 100 nM.
For `COc1ccc(/C(=C(\c2ccc(/C=C/C(=O)O)cc2)c2ccc3[nH]nc(F)c3c2)C2CCC2)c(C)n1` [Example 69, (E)-3-(4-((E)-2-Cyclobutyl-1-(3-fluoro-1H-indazol-5-yl)-2-(6-methoxy-2-methylpyridin-3-yl)vinyl)phenyl)acrylic acid], at ER-α in MCF-7 cells, the Emax was not below 40% and the DC50 is not above 100 nM. Further, in the assay with MCF-7 cells, the “MCF7 Viability Assay Max Response” value is “++ (++ = a single % value ≧ 40%)” and the half-inhibitory concentration (IC50) is not above 100 nM.
As for `CC/C(=C(/c1ccc(/C=C/C(=O)O)cc1)c1ccc2[nH]nc(F)c2c1)c1ccc(OC)nc1C` [Example 70, (E)-3-(4-((E)-1-(3-Fluoro-1H-indazol-5-yl)-2-(6-methoxy-2-methylpyridin-3-yl)but-1-en-1-yl)phenyl)acrylic acid], on ER-α in MCF-7 cells, the Emax is not below 40% and the DC50 was not above 100 nM. For the same molecule, in the assay on MCF-7 cells, the “MCF7 Viability Assay Max Response” value is reported as “++ (++ = a single % value ≧ 40%)” and the half-maximal inhibitory concentration (IC50) is not above 100 nM.
With `CC/C(=C(/c1ccc(/C=C/C(=O)O)cc1)c1ccc2[nH]nc(F)c2c1)c1cnc(OC)cc1C` [Example 71, (E)-3-(4-((E)-1-(3-Fluoro-1H-indazol-5-yl)-2-(6-methoxy-4-methylpyridin-3-yl)but-1-en-1-yl)phenyl)acrylic acid], at ER-α in MCF-7 cells, the Emax is not below 40% and the DC50 was not above 100 nM. In addition, in the assay with MCF-7 cells, the “MCF7 Viability Assay Max Response” value was “++ (++ = a single % value ≧ 40%)” and the half-inhibitory concentration (IC50) was not above 100 nM.
For `CSc1ccc(/C(=C(\c2ccc(/C=C/C(=O)O)cc2)c2ccc3[nH]nc(F)c3c2)C2CCC2)c(C)c1` [Example 72, (E)-3-(4-((E)-2-Cyclobutyl-1-(3-fluoro-1H-indazol-5-yl)-2-(2-methyl-4-(methylthio)phenyl)vinyl)phenyl)acrylic acid], on ER-α in MCF-7 cells, the Emax is not below 40% and the DC50 was not above 100 nM. In the assay with MCF-7 cells, the “MCF7 Viability Assay Max Response” value was “++ (++ = a single % value ≧ 40%)” and the half-maximal inhibitory concentration (IC50) was not above 100 nM.
As to `CSc1ccc(/C(=C(\c2ccc(/C=C/C(=O)O)cc2)c2ccc3[nH]nc(F)c3c2)C2CCC2)c(Cl)c1` [Example 73, (E)-3-(4-((E)-2-(2-Chloro-4-(methylthio)phenyl)-2-cyclobutyl-1-(3-fluoro-1H-indazol-5-yl)vinyl)phenyl)acrylic acid], at ER-α in MCF-7 cells, the Emax is not below 40% and the DC50 was not above 100 nM. Moreover, in the assay with MCF-7 cells, the “MCF7 Viability Assay Max Response” value was “++ (++ = a single % value ≧ 40%)” and the IC50 was not above 100 nM.
Consider `N#Cc1cnccc1/C(=C(\c1ccc(/C=C/C(=O)O)cc1)c1ccc2[nH]nc(F)c2c1)C1CCC1` [Example 74, (E)-3-(4-((E)-2-(3-Cyanopyridin-4-yl)-2-cyclobutyl-1-(3-fluoro-1H-indazol-5-yl)vinyl)phenyl)acrylic acid], for which, at ER-α in MCF-7 cells, the Emax was not below 40% and the DC50 was not above 100 nM. Further, in the assay with MCF-7 cells, the “MCF7 Viability Assay Max Response” value is reported as “++ (++ = a single % value ≧ 40%)” and the IC50 was not above 100 nM.
`O=C(O)/C=C/c1ccc(/C(=C(\c2ccc(F)cc2Cl)C2CCC2)c2cc3ccccc3o2)cc1` [Example 75, (E)-3-(4-((E)-1-(Benzofuran-2-yl)-2-(2-chloro-4-fluorophenyl)-2-cyclobutylvinyl)phenyl)acrylic acid]: on ER-α in MCF-7 cells, the Emax was not below 40% and the DC50 is not above 100 nM. In the assay with MCF-7 cells, the “MCF7 Viability Assay Max Response” value is “++ (++ = a single % value ≧ 40%)” and the IC50 was not above 100 nM.
Take `COc1cccc2c(/C(=C(/c3ccc(F)cc3Cl)C3CCC3)c3ccc(/C=C/C(=O)O)cc3)coc12` [Example 76, (E)-3-(4-((E)-2-(2-Chloro-4-fluorophenyl)-2-cyclobutyl-1-(7-methoxybenzofuran-3-yl)vinyl)phenyl)acrylic acid]: on ER-α in MCF-7 cells, the Emax is not below 40% and the DC50 is not above 100 nM. Moreover, in the assay with MCF-7 cells, the “MCF7 Viability Assay Max Response” value is reported as “++ (++ = a single % value ≧ 40%)” and the half-inhibitory concentration (IC50) was not above 100 nM.
Take `O=C(O)/C=C/c1ccc(/C(=C(\c2ccncc2Cl)C2CCC2)c2cc3ccccc3o2)cc1` [Example 77, (E)-3-(4-((E)-1-(Benzofuran-2-yl)-2-(3-chloropyridin-4-yl)-2-cyclobutylvinyl)phenyl)acrylic acid]: at ER-α in MCF-7 cells, the Emax is not below 40% and the DC50 is not above 100 nM. Moreover, in the assay on MCF-7 cells, the “MCF7 Viability Assay Max Response” value is given as “++ (++ = a single % value ≧ 40%)” and the IC50 is not above 100 nM.
Regarding `COc1cccc2c(/C(=C(/c3ccncc3Cl)C3CCC3)c3ccc(/C=C/C(=O)O)cc3)coc12` [Example 78, (E)-3-(4-((E)-2-(3-Chloropyridin-4-yl)-2-cyclobutyl-1-(7-methoxybenzofuran-3-yl)vinyl)phenyl)acrylic acid], at ER-α in MCF-7 cells, the Emax is not below 40% and the DC50 was not above 100 nM. In addition, in the assay with MCF-7 cells, the “MCF7 Viability Assay Max Response” value is given as “++ (++ = a single % value ≧ 40%)” and the IC50 is not above 100 nM.
Turning to `O=C(O)/C=C/c1ccc(/C(=C(\c2ccc(F)cc2Cl)C2CCC2)c2ccc3[nH]nnc3c2)cc1` [Example 79, (E)-3-(4-((E)-1-(1H-Benzo[d][1,2,3]triazol-5-yl)-2-(2-chloro-4-fluoro-phenyl)-2-cyclobutylvinyl)phenyl)acrylic acid], on ER-α in MCF-7 cells, the Emax was not below 40% and the DC50 was not above 100 nM. Moreover, in the assay on MCF-7 cells, the “MCF7 Viability Assay Max Response” value was “++ (++ = a single % value ≧ 40%)” and the IC50 was not above 100 nM.
With `O=C(O)/C=C/c1ccc(/C(=C(\c2ccc(F)cc2Cl)C2CCC2)c2cccc3[nH]ncc23)cc1` [Example 80, (E)-3-(4-((E)-2-(2-Chloro-4-fluorophenyl)-2-cyclobutyl-1-(1H-indazol-4-yl)vinyl)phenyl)acrylic acid], on ER-α in MCF-7 cells, the Emax is not below 40% and the DC50 was not above 100 nM. In the assay with MCF-7 cells, the “MCF7 Viability Assay Max Response” value was “++ (++ = a single % value ≧ 40%)” and the IC50 was not above 100 nM.
Regarding `COc1cc(/C(=C(\c2ccc(/C=C/C(=O)O)cc2)c2ccc3[nH]nc(F)c3c2)C2CCC2)ccn1` [Example 81, (E)-3-(4-((E)-2-Cyclobutyl-1-(3-fluoro-1H-indazol-5-yl)-2-(2-methoxypyridin-4-yl)vinyl)phenyl)acrylic acid], at ER-α in MCF-7 cells, the Emax was not below 40% and the DC50 was not above 100 nM. In the assay on MCF-7 cells, the “MCF7 Viability Assay Max Response” value is recorded as “++ (++ = a single % value ≧ 40%)” and the half-maximal inhibitory concentration (IC50) is not above 100 nM.
As for `N#Cc1cscc1/C(=C(\c1ccc(/C=C/C(=O)O)cc1)c1ccc2[nH]nc(F)c2c1)C1CCC1` [Example 82, (E)-3-(4-((E)-2-(4-Cyanothiophen-3-yl)-2-cyclobutyl-1-(3-fluoro-1H-indazol-5-yl)vinyl)phenyl)acrylic acid], on ER-α in MCF-7 cells, the Emax is not below 40% and the DC50 is not above 100 nM. Besides, in the assay with MCF-7 cells, the “MCF7 Viability Assay Max Response” value was “++ (++ = a single % value ≧ 40%)” and the 50% inhibitory concentration (IC50) is not above 100 nM.
In the case of `Cc1cnccc1/C(=C(\c1ccc(/C=C/C(=O)O)cc1)c1ccc2scnc2c1)C1CCC1` [Example 83, (E)-3-(4-((E)-1-(Benzo[d]thiazol-5-yl)-2-cyclobutyl-2-(3-methylpyridin-4-yl)vinyl)phenyl)acrylic acid], on ER-α in MCF-7 cells, the Emax is not below 40% and the DC50 is not above 100 nM. For the same molecule, in the assay with MCF-7 cells, the “MCF7 Viability Assay Max Response” value was “++ (++ = a single % value ≧ 40%)” and the half-maximal inhibitory concentration (IC50) was not above 100 nM.

(Values after patent publication US9499538B2, “Estrogen receptor modulators and uses thereof” (Seragon Pharmaceuticals, Inc., priority 2012, dated 2016).)
